In patent US11465987B2, “Compounds for treatment of cancer” (ONCTERNAL THERAPEUTICS, INC., priority 2012, dated 2022):
Like-named read-outs stand apart in the source and are kept apart here.

Tests used:
[1] = test system: DU 145 human prostate cancer cell line; assay: Cytotoxicity (SRB) assay, DU 145; format: cell-based
Source text: (§1) Cells were stained with SRB solution.

[2] = test system: PC-3 human prostate cancer cell line; assay: cells; conditions: Homo sapiens
Source text: as §1

[3] = test system: PPC-1 human prostate cancer cell line; assay: Cytotoxicity (SRB) assay, PPC-1; format: cell-based; conditions: Homo sapiens, PPC-1, Table 6A; read-out: IC50 ± SEM, PPC-1 (converted)
Source text: as §1

[4] = read-out: IC50 PC-3, SRB assay, prostate cancer PC-3
[5] = read-out: IC50 ± SEM, PC-3, Table 13
[6] = read-out: IC50 ± SEM, PC-3, Table 12
[7] = Homo sapiens, DU-145, Table 6A, read-out: IC50 ± SEM, DU 145
[8] = read-out: IC50 ± SEM, PC-3, Table 6A

4-Methoxyphenyl(4-(3,4,5-trimethoxyphenyl)-1H-imidazol-2-yl)methanone and 4-methoxyphenyl(5-(3,4,5-trimethoxyphenyl)-1H-imidazol-2-yl)methanone [70y]
IC50 ([1]; Table 13B, read-out: inhibitory effects, DU145): > 50 µM

COc1cc(C(=O)c2cc(-c3ccccc3)n[nH]2)cc(OC)c1OC [1k, (3-Phenyl-1H-pyrazol-5-yl)(3,4,5-trimethoxyphenyl)methanone]
IC50 [2, 4]: 0.101 µM

COc1cc(C(=C(C)C)c2csc(-c3ccccc3)n2)cc(OC)c1OC [2a, 4-(2-Methyl-1-(3,4,5-trimethoxyphenyl)prop-1-enyl)-2-phenylthiazole]
IC50 [2, 4]: 2.47 µM

COc1cc(/C(=C\C#N)c2csc(-c3ccccc3)n2)cc(OC)c1OC [2c-cis, (E)-3-(2-phenylthiazol-4-yl)-3-(3,4,5-trimethoxyphenyl)acrylonitrile]
IC50 ([2]; read-out: IC50 PC-3): ~10 µM

COc1cc(/C(=C/C#N)c2csc(-c3ccccc3)n2)cc(OC)c1OC [2c-trans, (Z)-3-(2-phenylthiazol-4-yl)-3-(3,4,5-trimethoxyphenyl)acrylonitrile]
IC50 ([2]; read-out: IC50 PC-3): 0.89 µM

COc1cc(/C(=N/N)c2csc(-c3ccccc3)n2)cc(OC)c1OC [2d-cis, (Z)-4-(hydrazono(3,4,5-trimethoxyphenyl)methyl)-2-phenylthiazole]
IC50 [2, 4]: 1.12 µM

COc1cc(/C(=N\N)c2csc(-c3ccccc3)n2)cc(OC)c1OC [2d-trans, (E)-4-(hydrazono(3,4,5-trimethoxyphenyl)methyl)-2-phenylthiazole]
IC50 [2, 4]: 1.04 µM

CO/N=C(/c1cc(OC)c(OC)c(OC)c1)c1csc(-c2ccccc2)n1 [2f-cis, (Z)-(2-Phenylthiazol-4-yl)(3,4,5-trimethoxyphenyl)methanone O-methyl oxime]
IC50 [2, 4]: > 10 µM

CO/N=C(\c1cc(OC)c(OC)c(OC)c1)c1csc(-c2ccccc2)n1 [2f-trans, (E)-(2-Phenylthiazol-4-yl)(3,4,5-trimethoxyphenyl)methanone O-methyl oxime]
IC50 [2, 4]: > 10 µM

COc1cc(C(=O)Nc2csc(-c3ccccc3)n2)cc(OC)c1OC [2h, 3,4,5-Trimethoxy-N-(2-phenylthiazol-4-yl)benzamide]
IC50 [2, 4]: > 10 µM

COc1cc(-c2csc(-c3ccccc3)n2)cc(OC)c1OC [2i, 2-Phenyl-4-(3,4,5-trimethoxyphenyl)thiazole]
IC50 [2, 4]: > 10 µM

COc1cc(/C=C/c2csc(-c3ccccc3)n2)cc(OC)c1OC [3b, (E)-2-Phenyl-4-(3,4,5-trimethoxystyryl)thiazole]
IC50 ([2]; read-out: IC50 PC-3): > 10 µM

COc1cc(S(=O)(=O)c2cccc(-c3ccccc3)c2)cc(OC)c1OC [4b, 3-(3,4,5-Trimethoxyphenylsulfonyl)biphenyl]
IC50 [2, 4]: > 10 µM

COc1cc([S+]([O-])c2cccc(-c3ccccc3)c2)cc(OC)c1OC (centres unmarked) [4c, 3-(3,4,5-Trimethoxyphenylsulfinyl)biphenyl]
IC50 [2, 4]: > 10 µM

COc1cc(NS(=O)(=O)c2cccc(-c3ccccc3)c2)cc(OC)c1OC [4d, N-(3,4,5-Trimethoxyphenyl)biphenyl-3-sulfonamide]
IC50 [2, 4]: > 10 µM

COc1cc(C(=O)c2csc(Nc3ccccc3)n2)cc(OC)c1OC [5a, (2-(phenylamino)thiazol-4-yl)(3,4,5-trimethoxyphenyl)methanone]
IC50 [2, 4]: 0.057 ± 0.003 µM

COc1cc(C(=O)c2csc(Nc3ccc(F)cc3)n2)cc(OC)c1OC [5c, (2-(p-fluorophenylamino)thiazol-4-yl)(3,4,5-trimethoxyphenyl)methanone]
IC50 [2, 4]: 0.043 ± 0.001 µM

COc1cc(C(=O)c2csc(Nc3ccc(Cl)cc3)n2)cc(OC)c1OC [5d, (2-(4-chlorophenylamino)thiazol-4-yl)(3,4,5-trimethoxyphenyl)methanone]
IC50 [2, 4]: 0.033 ± 0.001 µM

COc1cc(C(=O)c2c[nH]c(Nc3ccccc3)n2)cc(OC)c1OC [5e, (2-(phenylamino)-1H-imidazol-4-yl)(3,4,5-trimethoxyphenyl)methanone]
IC50 [2, 4]: > 1 µM

COc1ccc(C(=O)c2cn(S(=O)(=O)c3ccccc3)c(-c3ccccc3)n2)cc1 [11ab, (4-methoxyphenyl)(2-phenyl-1-(phenylsulfonyl)-1H-imidazol-4-yl)methanone]
IC50 [2, 5]: > 10 µM

COc1cccc(C(=O)c2cn(S(=O)(=O)c3ccccc3)c(-c3ccccc3)n2)c1 [11ac, (3-methoxyphenyl)(2-phenyl-1-(phenylsulfonyl)-1H-imidazol-4-yl)methanone]
IC50 [2, 5]: > 10 µM

O=C(c1cccc(F)c1)c1cn(S(=O)(=O)c2ccccc2)c(-c2ccccc2)n1 [11ag, (3-fluorophenyl)(2-phenyl-1-(phenylsulfonyl)-1H-imidazol-4-yl)methanone]
IC50 [2, 5]: > 10 µM

Cc1ccc(C(=O)c2cn(S(=O)(=O)c3ccccc3)c(-c3ccccc3)n2)cc1 [11ah, (2-phenyl-1-(phenylsulfonyl)-1H-imidazol-4-yl)(p-tolyl)methanone]
IC50 [2, 5]: > 10 µM

Cc1ccc(-c2nc(C(=O)c3ccc(F)cc3)cn2S(=O)(=O)c2ccccc2)cc1 [11db, (4-fluorophenyl)(1-(phenylsulfonyl)-2-(p-tolyl)-1H-imidazol-4-yl)methanone]
IC50 [2, 5]: 0.08 µM

COc1ccc(-c2nc(C(=O)c3ccc(F)cc3)cn2C)cc1 [12cba, (4-fluorophenyl)(2-(4-methoxyphenyl)-1-methyl-1H-imidazol-4-yl)methanone]
IC50 [2, 5]: > 10 µM

CN(C)c1ccc(-c2nc(C(=O)c3ccc(F)cc3)c[nH]2)cc1 [12gb, (2-(4-(dimethylamino)phenyl)-1H-imidazol-4-yl)(4-fluorophenyl)methanone]
IC50 [2, 6]: 0.081 µM

COc1cc(C(=O)c2c[nH]c(-c3ccc(C(F)(F)F)cc3)n2)cc(OC)c1OC [12pa, (2-(4-(trifluoromethyl)phenyl)-1H-imidazol-4-yl)(3,4,5-trimethoxyphenyl)methanone]
IC50 [2, 6]: 0.127 µM

O=C(c1cc(O)c(O)c(O)c1)c1c[nH]c(-c2cc(O)c(O)c(O)c2)n1 [13ea, (3,4,5-trihydroxyphenyl)(2-(3,4,5-trihydroxyphenyl)-1H-imidazol-4-yl)methanone]
IC50 [2, 6]: > 10 µM

COc1cc(C(=O)c2cn(S(=O)(=O)c3ccccc3)c(-c3ccc4c(c3)cc(C(=O)c3cc(OC)c(OC)c(OC)c3)n4S(=O)(=O)c3ccccc3)n2)cc(OC)c1OC [16xaa, (1-(phenylsulfonyl)-2-(1-(phenylsulfonyl)-2-(3,4,5-trimethoxybenzoyl)-1H-indol-5-yl)-1H-imidazol-4-yl)(3,4,5-trimethoxyphenyl)methanone]
IC50 ([2]; read-out: IC50 ± SEM, PC-3): > 10 µM

COc1cc(C(=O)[C@@H]2CSC(c3ccc(O[Si](C)(C)C(C)(C)C)cc3)=N2)cc(OC)c1OC [58a, (R)-(2-(4-(tert-Butyldimethylsilyloxy)phenyl)-4,5-dihydrothiazol-4-yl)(3,4,5-trimethoxyphenyl)methanone]
IC50 ([2]; read-out: IC50 PC-3): 0.183 ± 0.024 µM

COc1cc(C(=O)c2csc(-c3cc4ccccc4[nH]3)n2)cc(OC)c1OC [62a, (2-(1H-indol-2-yl)thiazol-4-yl)(3,4,5-trimethoxyphenyl)methanone]
IC50 ([2]; read-out: IC50 PC-3): 0.024 µM

COc1cc(C(=O)c2csc(-c3ccc(CNC(=O)OC(C)(C)C)cc3)n2)cc(OC)c1OC [68a, tert-Butyl 4-(4-(3,4,5-trimethoxybenzoyl)thiazol-2-yl)benzylcarbamate]
IC50 [2, 4]: 3.1 µM

COc1cc(C(=O)c2csc(-c3ccccc3)n2)cc(OC)c1OCc1ccccc1 [compound 9]
IC50 [1, 7]: ~10 µM | IC50 [2, 8]: ~10 µM | IC50 [3]: ~10 µM

Cc1ccc(-c2nc(C(=O)c3ccc(F)cc3)cs2)cc1 [compound 11]
IC50 [1, 7]: > 10 µM | IC50 [2, 8]: > 10 µM | IC50 [3]: > 10 µM

O=C(c1ccc(F)cc1)c1csc(-c2ccccc2)n1 [compound 12]
IC50 [1, 7]: > 10 µM | IC50 [2, 8]: > 10 µM | IC50 [3]: > 10 µM

O=C(c1ccc(OC(F)(F)F)cc1)c1csc(-c2ccccc2)n1 [compound 13]
IC50 [1, 7]: > 10 µM | IC50 [2, 8]: > 10 µM | IC50 [3]: > 10 µM

O=C(c1ccc(F)cc1)c1csc(-c2ccc(F)cc2)n1 [compound 14]
IC50 [1, 7]: > 10 µM | IC50 [2, 8]: > 10 µM | IC50 [3]: > 10 µM

O=C(c1csc(-c2cc(F)c(F)c(F)c2)n1)c1c(F)c(F)c(F)c(F)c1F [compound 16]
IC50 [1, 7]: > 10 µM | IC50 [2, 8]: > 10 µM | IC50 [3]: > 10 µM

COc1cc(C(=O)c2csc(-c3ccccc3)n2)cc(OC)c1OC(=O)CCl [compound 18]
IC50 [1, 7]: ~10 µM | IC50 [2, 8]: ~10 µM | IC50 [3]: ~10 µM

O=C(c1ccc2c(c1)OCO2)N1CCC(c2ccccc2)CC1 [compound 19]
IC50 [1, 7]: > 20 µM | IC50 [2, 8]: > 20 µM | IC50 [3]: > 20 µM

O=C(c1ccc(F)cc1)N1CCC(c2ccccc2)CC1 [compound 22]
IC50 [1, 7]: > 20 µM | IC50 [2, 8]: > 20 µM | IC50 [3]: > 20 µM

COc1cc(C(=O)c2csc(-c3ccccc3)n2)cc(OC)c1OC(=O)C(F)(F)F [compound 23]
IC50 [1, 7]: ~10 µM | IC50 [2, 8]: ~10 µM | IC50 [3]: ~10 µM

COc1cc(-c2nc(C(=O)c3ccc(F)cc3)cn2C(=O)c2ccc(F)cc2)cc(OC)c1OC [compound 30]
IC50 [1, 7]: > 10 µM | IC50 [2, 8]: > 10 µM | IC50 [3]: > 10 µM

COc1cc(C(=NC#N)c2csc(-c3ccccc3)n2)cc(OC)c1O [compound 32, N-((4-hydroxy-3,5-dimethoxyphenyl)(2-phenylthiazol-4-yl)methylene)cyanamide]
IC50 [2, 8]: 2.29 µM

O=C(c1cc(O)c(O)c(O)c1)c1csc(-c2ccccc2)n1 [compound 33]
IC50 [1, 7]: > 2 µM | IC50 [2, 8]: > 2 µM | IC50 [3]: > 2 µM

COc1cc(C(=O)c2csc(-c3ccccc3)n2)cc(OC)c1O [compound 34]
IC50 [1, 7]: > 10 µM | IC50 [2, 8]: > 10 µM | IC50 [3]: > 10 µM

c1ccc(Nc2nccn2C(c2ccccc2)(c2ccccc2)c2ccccc2)cc1 [d, N-Phenyl-1-trityl-1H-imidazol-2-amine]
IC50 [2, 4]: > 1 µM

COc1cc(C(=O)c2cn(C(c3ccccc3)(c3ccccc3)c3ccccc3)c(Nc3ccccc3)n2)cc(OC)c1OC [e, (2-(Phenylamino)-1-trityl-1H-imidazol-4-yl)(3,4,5 trimethoxyphenyl)methanone]
IC50 [2, 4]: > 1 µM
